Results on 1 compound are retold here after PMC9501983, “Transport and Permeation Properties of Dapivirine: Understanding Potential Drug-Drug Interactions” (Pharmaceutics, 2022).

The subject of one series is CYP1A1. On the set-up: method as in PMID 34959473. Particulars: cited from earlier work.
In another series the test system is HEC-1-A cells. As to the kind of experiment: Tight junction disruption, TEER of HEC-1-A monolayers in Ussing chamber. Type of series: cell-based, human. The conditions noted are these: apical treatment in HBSS without Ca/Mg; DPV 5 μM, MIC 5 μM, combination 5 μM each, EGTA 2 mM. On the procedure: HEC-1-A cells were seeded at a density of 9000 cells per cm^2 onto 0.4 μm permeable snapwell inserts (Corning Inc., Corning, NY, USA). […] Only monolayers displaying TEER values above the threshold indicating confluency (130 Ωcm^2) were considered qualified to be used in this study.
To evaluate tight junction disruption, qualified HEC-1-A cell monolayers were mounted onto the Ussing Chamber apparatus (Physiologic Instruments, San Diego, CA, USA) to monitor TEER values. After equilibrating cells with HBSS at 37 °C for 20 min, buffer in basolateral chambers was replaced with HBSS without calcium or magnesium (HBSS Ca^−&Mg^−), while buffer in the apical chambers was replaced with respective treatment solution in HBSS Ca^−&Mg^-. Treatments included 5 μM DPV, 5 μM MIC, and 5 μM DPV with 5 μM MIC. 2 mM EGTA, a known tight junction disruptor that decreases TEER, was used as the positive control and blank HBSS Ca^-&Mg^- was used as negative control. Cells were incubated at 37 °C for 80 min and the obtained TEER values were normalized against initial measurements at time 0.

Details of series [1]: method as in PMID 26034880. The conditions noted are these: DPV ring clinical study (IPM 026); cited from earlier work.
Another series deals with T1, MRP4 (Homo sapiens, UniProt O15439).
T1 sequence (O15439 1-1325): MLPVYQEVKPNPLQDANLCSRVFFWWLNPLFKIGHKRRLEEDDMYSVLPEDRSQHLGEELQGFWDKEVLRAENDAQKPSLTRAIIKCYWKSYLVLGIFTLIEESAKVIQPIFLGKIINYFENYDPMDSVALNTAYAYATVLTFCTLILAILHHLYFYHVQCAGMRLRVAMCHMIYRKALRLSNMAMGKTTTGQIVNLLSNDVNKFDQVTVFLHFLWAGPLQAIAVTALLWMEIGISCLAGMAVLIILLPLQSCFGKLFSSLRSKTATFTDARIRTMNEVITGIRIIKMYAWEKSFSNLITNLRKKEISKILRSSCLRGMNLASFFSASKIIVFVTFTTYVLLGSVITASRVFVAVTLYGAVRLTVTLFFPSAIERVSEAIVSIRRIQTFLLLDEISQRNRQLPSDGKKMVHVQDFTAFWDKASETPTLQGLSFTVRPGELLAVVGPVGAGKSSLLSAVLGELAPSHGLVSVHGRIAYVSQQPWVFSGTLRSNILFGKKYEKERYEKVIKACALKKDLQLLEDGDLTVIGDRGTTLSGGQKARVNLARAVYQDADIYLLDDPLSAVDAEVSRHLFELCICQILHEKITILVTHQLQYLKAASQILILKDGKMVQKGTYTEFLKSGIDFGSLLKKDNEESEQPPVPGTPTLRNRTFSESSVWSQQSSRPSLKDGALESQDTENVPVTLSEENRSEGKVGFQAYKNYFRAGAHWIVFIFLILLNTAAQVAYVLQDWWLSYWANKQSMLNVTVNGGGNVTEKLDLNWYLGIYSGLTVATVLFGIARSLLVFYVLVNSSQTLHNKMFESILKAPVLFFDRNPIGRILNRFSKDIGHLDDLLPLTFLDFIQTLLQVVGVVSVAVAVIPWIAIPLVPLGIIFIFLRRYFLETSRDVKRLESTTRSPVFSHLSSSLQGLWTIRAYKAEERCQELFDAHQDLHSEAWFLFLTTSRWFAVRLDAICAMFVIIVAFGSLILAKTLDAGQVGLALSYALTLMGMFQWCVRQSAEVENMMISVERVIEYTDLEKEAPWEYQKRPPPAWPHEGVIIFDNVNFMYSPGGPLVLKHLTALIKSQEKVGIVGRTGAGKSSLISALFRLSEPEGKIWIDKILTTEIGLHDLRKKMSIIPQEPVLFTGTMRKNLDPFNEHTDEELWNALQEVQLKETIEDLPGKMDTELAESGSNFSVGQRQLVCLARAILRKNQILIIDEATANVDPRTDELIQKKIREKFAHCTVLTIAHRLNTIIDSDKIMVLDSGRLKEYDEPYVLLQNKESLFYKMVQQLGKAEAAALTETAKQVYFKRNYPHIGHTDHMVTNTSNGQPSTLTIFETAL
Description: in vitro. The protocol: To investigate if DPV was a substrate or inhibitor of MRP1 or MRP4, ATP-dependent and independent uptake of DPV (in the substrate study) or estradiol 17 β-D-glucuronide (a known MRP1/MRP4 substrate in the inhibitor study) was measured using 50 μg MRP1, MRP4, and control vesicles. […] The uptake assay was performed at a total volume of 50 μL with either 4 mM ATP or AMP, 2 mM glutathione, 10 μM DPV or estradiol 17 β-D-glucuronide as substrates, with and without 20 μM DPV or MK571 as inhibitors. […] To quantify the uptake amount of DPV or estradiol 17 β-D-glucuronide, 4 μCi mL^−1 3H-DPV or ^3H- estradiol 17 β-D-glucuronide was added to the assay mixture.
The vesicular uptake assays were performed under the above-mentioned conditions. The membrane vesicles were first incubated with respective inhibitor solution or blank assay buffer. The reaction was then initiated by adding the remaining components of the assay mixture to the vesicles and incubated at 37 °C for 3 min. To terminate the reaction, 200 μL ice-cold buffer was added to each well. The samples were then transferred to a glass fiber filter plate and washed 5 times by rapid filtration using a vacuum manifold (IBI Scientific, Dubuque, IA, USA). To quantify ^3H-DPV and ^3H-estradiol 17 β-D-glucuronide uptake, the washed vesicles were lysed with scintillation cocktail at room temperature for 20 min. The collected samples were analyzed on an LS6500 liquid scintillation counter (Beckman Coulter, Brea, CA, USA).
If ATP-dependent uptake was observed, the uptake amount by active transport was calculated using Equation (1):(1) Normalized uptake=mean uptake with ATP−mean uptake with AMP

`Cc1cc(C)c(Nc2ccnc(Nc3ccc(C#N)cc3)n2)c(C)c1` [DPV, dapivirine]: in the series on CYP1A1, the “Substrate of CYP1A1” value is reported as “substrate”. In the series on HEC-1-A cells, the “Relative TEER percentage of baseline value at 80 min” value is on record as 94.7 ± 7.8%. Also, the DPV tissue concentration in series [1] was 1.8 µM. The “Substrate status for MRP4” value at MRP4 is on record as “not a substrate”. Moreover, the “Normalized estradiol 17 β-D-glucuronide uptake by MRP4 vesicles co-incubated with inhibitor” value at MRP4 (10 μM substrate, 20 μM test inhibitor, ATP minus AMP) came to 14.08 fmol. Besides, the “Active uptake of estradiol 17 β-D-glucuronide by MRP4 vesicles, reduced to % of control” value at MRP4 (20 µM) is on record as “not significantly affected”.
